pIC50: −log10 of the molar value.
Key:
PI3Kα = PI3Kα (Homo sapiens (Human), UniProt P42336); experiment: Inhibition of PI3Kα efficacy assay (ADP-Glo kinase assay); assay type: biochemical; settings: Table 4; read-out: PI3Kα inhibitory activity (IC50)
How it was run: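 ADP-Glo luminescent detection of ADP from PI3Kα acting on PI substrate with ATP, 60 min at RT; compounds in 8-point five-fold serial dilution from 2 mM DMSO stock. IC50 from four-parameter variable-slope fit.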

PI3Kδ = PI3Kδ (Homo sapiens (Human), UniProt O00329); experiment: Inhibition of PI3Kδ efficacy assay (ADP-Glo kinase assay); assay type: biochemical; settings: Table 4; read-out: PI3Kδ inhibitory activity (IC50)
How it was run: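 Luminescent ADP-Glo readout of PI3Kδ: after a 60 min RT reaction with PI/ATP substrate, ATP depletion (40 min) and ADP detection (40 min) steps followed. Compounds tested as eight five-fold serial dilutions; inhibition rates fitted to log(inhibitor) vs. response, variable slope, for IC50.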

KRAS^G12C-SOS1 = KRAS^G12C-SOS1 (Homo sapiens (Human), UniProt P01116, G12C); experiment: HTRF KRAS G12C/SOS1 binding assay; settings: Table 5
How it was run: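 Compound was serially diluted five-fold over eight points, with a 2 mM DMSO stock. After anti-tag-Tb3+ and anti-tag-XL665 were added, plates were incubated 3 h at 4 °C and read by HTRF (ex 337 nm, em 620/665 nm ratio). IC50 values come from four-parameter variable-slope fits.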

[1] = system: NCI-H358 cells (KRAS G12C mutant); experiment: NCI-H358 cell proliferation inhibition (CellTiter-Glo); assay type: cell-based; settings: Homo sapiens, NCI-H358, 72 h; H358 cells (G12C mutation), 3 days, Table 6; read-out: NCI-H358 (IC50)
[2] = system: NCI-H358-AMGR drug-resistant cell line; experiment: NCI-H358-AMGR drug-resistant cell proliferation inhibitory activity test; assay type: cell-based; settings: 72 h; NCI-H358-AMGR drug-resistant cells, 3 days incubation, CellTiter-Glo
How it was run: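 Luminescent CellTiter-Glo read-out after 3-day, 37° C compound exposure (8 points, 5-fold series) of AMG510-resistant NCI-H358 cells plated at 4×10^3 per well.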

PI3Kα, sequence (P42336 whole entry): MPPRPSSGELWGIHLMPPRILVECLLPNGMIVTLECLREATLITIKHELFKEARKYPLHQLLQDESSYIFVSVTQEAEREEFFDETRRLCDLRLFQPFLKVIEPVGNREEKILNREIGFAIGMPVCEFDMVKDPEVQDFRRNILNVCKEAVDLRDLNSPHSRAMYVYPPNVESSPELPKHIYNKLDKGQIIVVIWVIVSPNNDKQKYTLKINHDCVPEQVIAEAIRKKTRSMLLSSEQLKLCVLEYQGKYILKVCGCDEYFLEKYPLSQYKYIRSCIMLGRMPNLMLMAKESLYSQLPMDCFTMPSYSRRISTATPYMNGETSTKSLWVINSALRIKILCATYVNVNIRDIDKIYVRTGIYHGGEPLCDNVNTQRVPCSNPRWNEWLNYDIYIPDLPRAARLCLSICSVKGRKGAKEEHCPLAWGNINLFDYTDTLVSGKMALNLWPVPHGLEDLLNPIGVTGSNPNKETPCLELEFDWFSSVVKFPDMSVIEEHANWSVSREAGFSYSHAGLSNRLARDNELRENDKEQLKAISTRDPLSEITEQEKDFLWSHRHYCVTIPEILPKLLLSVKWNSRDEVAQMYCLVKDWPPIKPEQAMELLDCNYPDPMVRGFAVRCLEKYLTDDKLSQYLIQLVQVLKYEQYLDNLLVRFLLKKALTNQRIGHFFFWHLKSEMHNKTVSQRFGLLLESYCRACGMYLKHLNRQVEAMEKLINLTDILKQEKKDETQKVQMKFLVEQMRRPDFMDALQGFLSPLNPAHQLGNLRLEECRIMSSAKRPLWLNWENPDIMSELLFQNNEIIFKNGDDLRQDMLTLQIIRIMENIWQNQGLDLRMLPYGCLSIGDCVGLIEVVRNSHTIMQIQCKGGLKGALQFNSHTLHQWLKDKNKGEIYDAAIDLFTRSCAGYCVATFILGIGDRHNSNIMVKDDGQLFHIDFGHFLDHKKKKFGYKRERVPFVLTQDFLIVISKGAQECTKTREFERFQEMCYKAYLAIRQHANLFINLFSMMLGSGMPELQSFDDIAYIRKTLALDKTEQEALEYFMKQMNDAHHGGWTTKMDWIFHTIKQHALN
PI3Kα, sequence (P27986 whole entry partner): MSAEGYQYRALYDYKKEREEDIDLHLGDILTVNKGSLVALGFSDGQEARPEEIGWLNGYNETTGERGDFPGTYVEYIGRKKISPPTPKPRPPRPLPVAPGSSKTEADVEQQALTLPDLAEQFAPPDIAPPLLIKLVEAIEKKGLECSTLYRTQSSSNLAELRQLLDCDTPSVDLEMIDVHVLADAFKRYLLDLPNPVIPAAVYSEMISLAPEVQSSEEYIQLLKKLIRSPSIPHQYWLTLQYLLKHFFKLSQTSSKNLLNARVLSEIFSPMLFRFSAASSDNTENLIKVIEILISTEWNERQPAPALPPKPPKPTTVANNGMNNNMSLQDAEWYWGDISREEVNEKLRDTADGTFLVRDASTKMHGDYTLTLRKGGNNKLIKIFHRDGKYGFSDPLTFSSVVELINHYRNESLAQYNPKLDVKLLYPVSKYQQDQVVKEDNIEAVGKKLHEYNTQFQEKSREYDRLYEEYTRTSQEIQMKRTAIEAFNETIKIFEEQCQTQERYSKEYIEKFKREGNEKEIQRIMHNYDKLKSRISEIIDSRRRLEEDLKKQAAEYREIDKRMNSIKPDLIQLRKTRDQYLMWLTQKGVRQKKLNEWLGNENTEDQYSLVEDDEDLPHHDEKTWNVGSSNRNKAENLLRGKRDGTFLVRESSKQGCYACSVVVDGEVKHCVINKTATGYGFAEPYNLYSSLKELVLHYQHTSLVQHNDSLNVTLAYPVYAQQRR
KRAS^G12C-SOS1, sequence (P01116-2 other isoform, or with tags, fused parts or gaps G12C): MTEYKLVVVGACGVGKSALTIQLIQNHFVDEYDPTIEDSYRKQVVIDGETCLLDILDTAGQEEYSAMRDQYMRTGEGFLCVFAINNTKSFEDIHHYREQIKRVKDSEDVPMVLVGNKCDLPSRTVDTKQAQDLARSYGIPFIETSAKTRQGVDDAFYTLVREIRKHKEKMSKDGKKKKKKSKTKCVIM
PI3Kδ, sequence (O00329 whole entry): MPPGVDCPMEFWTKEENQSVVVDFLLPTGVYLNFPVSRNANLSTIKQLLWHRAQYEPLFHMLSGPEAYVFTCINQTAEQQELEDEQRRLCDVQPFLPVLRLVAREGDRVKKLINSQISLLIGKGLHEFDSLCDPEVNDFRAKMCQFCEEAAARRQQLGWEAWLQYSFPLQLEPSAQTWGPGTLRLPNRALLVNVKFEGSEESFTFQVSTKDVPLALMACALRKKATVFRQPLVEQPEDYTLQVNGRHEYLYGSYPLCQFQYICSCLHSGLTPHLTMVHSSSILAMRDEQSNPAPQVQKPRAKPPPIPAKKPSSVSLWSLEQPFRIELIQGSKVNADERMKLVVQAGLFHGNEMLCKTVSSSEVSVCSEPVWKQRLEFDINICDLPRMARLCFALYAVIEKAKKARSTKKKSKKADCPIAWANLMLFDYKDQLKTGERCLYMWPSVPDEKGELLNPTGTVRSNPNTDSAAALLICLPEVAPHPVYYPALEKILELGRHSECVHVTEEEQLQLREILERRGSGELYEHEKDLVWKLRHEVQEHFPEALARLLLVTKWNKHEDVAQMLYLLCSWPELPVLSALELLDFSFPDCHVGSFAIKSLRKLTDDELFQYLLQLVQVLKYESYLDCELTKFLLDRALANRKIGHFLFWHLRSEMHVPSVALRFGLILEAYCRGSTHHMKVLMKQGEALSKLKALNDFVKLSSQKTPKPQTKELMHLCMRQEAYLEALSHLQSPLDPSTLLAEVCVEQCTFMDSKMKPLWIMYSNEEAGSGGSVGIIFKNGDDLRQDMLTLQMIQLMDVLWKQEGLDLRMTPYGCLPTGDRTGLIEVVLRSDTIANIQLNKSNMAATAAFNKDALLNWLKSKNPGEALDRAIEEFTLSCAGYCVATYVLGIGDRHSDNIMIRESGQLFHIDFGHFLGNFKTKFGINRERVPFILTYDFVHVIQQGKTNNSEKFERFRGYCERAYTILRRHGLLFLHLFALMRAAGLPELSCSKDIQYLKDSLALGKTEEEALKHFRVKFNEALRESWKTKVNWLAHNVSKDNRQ
PI3Kδ, sequence (P27986 whole entry partner): as the sequence (P27986 whole entry partner) above

| Compound | pIC50 (PI3Kα) | pIC50 (PI3Kδ) | pIC50 (KRAS^G12C-SOS1) | pIC50 [1] | pIC50 [2] |
| --- | --- | --- | --- | --- | --- |
| COc1ncc(-c2ccc3ncnc(N4CC5CCC4CN5C(=O)/C=C/C(C)=O)c3c2)cc1NS(=O)(=O)c1ccc(F)cc1F (centres unmarked) [Example 158, (E)-2,4-difluoro-N-(2-methoxy-5-(4-(5-(4-oxopent-2-enoyl)-2,5-diazabicyclo[2.2.2]octan-2-yl)quinazolin-6-yl)pyridin-3-yl)benzenesulfonamide] | 8.52 | 7.46 | 6.72 | 7.26 | 6.81 |
| COc1ncc(-c2ccc3ncnc(N4CCN(C(=O)/C=C/C(C)=O)CC4)c3c2)cc1NS(=O)(=O)c1sc(C)nc1C [Example 160, (E)-N-(2-methoxy-5-(4-(4-(4-oxopent-2-enoyl)piperazin-1-yl)quinazolin-6-yl)pyridin-3-yl)-2,4-dimethylthiazole-5-sulfonamide] | 8.70 | 7.82 | 6.77 | 7.89 | 7.16 |
| COc1ncc(-c2ccc3ncnc(N4CCC5(CC4)CN(C(=O)/C=C/C(C)=O)C5)c3c2)cc1NS(=O)(=O)c1ccc(F)cc1 [Example 161, (E)-4-fluoro-N-(2-methoxy-5-(4-(2-(4-oxopent-2-enoyl)-2,7-diazaspiro[3.5]nonan-7-yl)quinazolin-6-yl)pyridin-3-yl)benzenesulfonamide] | 9.09 | 8.00 | 6.55 | 7.36 | 6.84 |
| COc1ncc(-c2ccc3ncnc(N4CCN(C(=O)/C=C/C(C)=O)CC4)c3c2)cc1NS(=O)(=O)c1ncc(Cl)s1 [Example 165, (E)-5-chloro-N-(2-methoxy-5-(4-(4-(4-oxopent-2-enoyl)piperazin-1-yl)quinazolin-6-yl)pyridin-3-yl)thiazole-2-sulfonamide] | 8.92 | 7.92 | 6.44 | 7.44 | 6.77 |
| C=C(C(C)=O)C(=O)N1CCN(c2ncnc3ccc(-c4cnc(OC)c(NS(=O)(=O)c5ccc(F)cc5F)c4)cc23)CC1 [Example 168, 2,4-difluoro-N-(2-methoxy-5-(4-(4-(2-methylene-3-oxobutanoyl)piperazin-1-yl)quinazolin-6-yl)pyridin-3-yl)benzenesulfonamide] | 8.21 | 7.76 | 6.26 | 7.51 | 6.62 |
| COc1ncc(-c2ccc3ncnc(N4CCN(C(=O)/C=C/C(C)=O)CC4)c3c2)cc1NS(=O)(=O)c1ccc(F)cc1Cl [Example 169, (E)-2-chloro-4-fluoro-N-(2-methoxy-5-(4-(4-(4-oxopent-2-enoyl)piperazin-1-yl)quinazolin-6-yl)pyridin-3-yl)benzenesulfonamide] | 8.42 | 7.72 | 6.60 | 8.24 | 7.44 |
| COc1ncc(-c2ccc3ncnc(N4CCC5(CC4)CN(C(=O)/C=C/C(C)=O)C5)c3c2)cc1NS(=O)(=O)c1ccc(F)cc1Cl [Example 171, (E)-2-chloro-4-fluoro-N-(2-methoxy-5-(4-(2-(4-oxopent-2-enoyl)-2,7-diazaspiro[3.5]nonan-7-yl)quinazolin-6-yl)pyridin-3-yl)benzene-sulfonamide] | 7.89 | 7.40 | 6.36 | 8.24 | 7.38 |
| COc1ncc(-c2ccc3ncnc(N4CCN(C(=O)/C=C/C(C)=O)CC4)c3c2)cc1NS(=O)(=O)c1ccncc1C [Example 172, (E)-N-(2-methoxy-5-(4-(4-(4-oxopent-2-enoyl)piperazin-1-yl)quinazolin-6-yl)pyridin-3-yl)-3-methyl-pyridine-4-sulfonamide] | 8.39 | 7.95 | 6.21 | 7.17 | 6.35 |
| COc1ncc(-c2ccc3ncnc(N4CCN(C(=O)/C=C/C(C)=O)C[C@@H]4C)c3c2)cc1NS(=O)(=O)c1sc(C)nc1C [Example 173, (S,E)-N-(2-methoxy-5-(4-(2-methyl-4-(4-oxopent-2-enoyl)piperazin-1-yl)quinazolin-6-yl)pyridin-3-yl)-2,4-dimethyl-thiazole-5-sulfonamide] | 8.66 | 7.78 | 6.70 | 8.17 | 7.26 |
| COc1ncc(-c2ccc3ncnc(N4CCN(C(=O)/C=C/C(C)=O)C[C@@H]4C)c3c2)cc1NS(=O)(=O)c1ccc(F)cc1Cl [Example 174, (S,E)-2-chloro-4-fluoro-N-(2-methoxy-5-(4-(2-methyl-4-(4-oxopent-2-enoyl)piperazin-1-yl)quinazolin-6-yl)pyridin-3-yl)benzene-sulfonamide] | 8.46 | 7.77 | 6.37 | 7.80 | 7.54 |
| COc1ncc(-c2ccc3ncnc(N4CC5CCC(C4)N5C(=O)/C=C/C(C)=O)c3c2)cc1NS(=O)(=O)c1ccc(F)cc1Cl [Example 175, 2-chloro-4-fluoro-N-(2-methoxy-5-(4-(8-((E)-4-oxopent-2-enoyl)-3,8-diazabicyclo [3.2.1]octan-3-yl)quinazolin-6-yl)pyridin-3-yl)benzene-sulfonamide] | 8.22 | 7.79 | 6.54 | 7.65 | 7.24 |
| COc1ncc(-c2ccc3ncnc(N4CC5CCC(C4)N5C(=O)/C=C/C(C)=O)c3c2)cc1NS(=O)(=O)c1sc(C)nc1C [Example 176, N-(2-methoxy-5-(4-(8-((E)-4-oxopent-2-enoyl)-3,8-diazabicyclo [3.2.1]octan-3-yl)quinazolin-6-yl)pyridin-3-yl)-2,4-dimethyl-thiazole-5-sulfonamide] | 8.59 | 7.86 | 6.95 | 7.57 | 7.12 |
| COc1ncc(-c2ccc3ncnc(N4CCN(C(=O)/C=C/C(C)=O)CC4)c3c2)cc1NS(=O)(=O)c1ccc(Cl)cc1F [Example 177, (E)-4-chloro-2-fluoro-N-(2-methoxy-5-(4-(4-(4-oxopent-2-enoyl)piperazin-1-yl)quinazolin-6-yl)pyridin-3-yl)benzene-sulfonamide] | 8.30 | 7.72 | 6.61 | 7.44 | 7.31 |
| COc1ncc(-c2ccc3ncnc(N4CCC5(CC4)CN(C(=O)/C=C/C(C)=O)C5)c3c2)cc1NS(=O)(=O)c1sc(C)nc1C [Example 178, (E)-N-(2-methoxy-5-(4-(2-(4-oxopent-2-enoyl)-2,7-diazaspiro[3.5]nonan-7-yl)quinazolin-6-yl)pyridin-3-yl)-2,4-dimethyl-thiazole-5-sulfonamide] | 7.69 | 8.04 | 6.67 | 7.60 | 7.18 |
| COc1ccc(Cl)c(S(=O)(=O)Nc2cc(-c3ccc4ncnc(N5CCN(C(=O)/C=C/C(C)=O)CC5)c4c3)cnc2OC)c1 [Example 184, (E)-2-chloro-5-methoxy-N-(2-methoxy-5-(4-(4-(4-oxopent-2-enoyl)piperazin-1-yl)quinazolin-6-yl)pyridin-3-yl)benzene-sulfonamide] | 9.09 | 7.79 | 6.44 | 7.13 | 6.87 |
| COc1ncc(-c2ccc3ncnc(C4=CCN(C(=O)/C=C/C(C)=O)CC4)c3c2)cc1NS(=O)(=O)c1ccc(F)cc1F [Example 198, (E)-2,4-difluoro-N-(2-methoxy-5-(4-(1-(4-oxopent-2-enoyl)-1,2,3,6-tetrahydropyridin-4-yl)quinazolin-6-yl)pyridin-3-yl)benzenesulfonamide] | 8.96 | 7.88 | 6.87 | 7.91 | 7.66 |
| COc1ncc(-c2ccc3ncnc(C4=CCN(C(=O)/C=C/C(C)=O)CC4)c3c2)cc1NS(=O)(=O)c1sc(C)nc1C [Example 199, (E)-N-(2-methoxy-5-(4-(1-(4-oxopent-2-enoyl)-1,2,3,6-tetrahydropyridin-4-yl)quinazolin-6-yl)pyridin-3-yl)-2,4-dimethylthiazole-5-sulfonamide] | 8.82 | 7.92 | 6.75 | 7.92 | 7.66 |
| COc1ncc(-c2ccc3ncnc(C4=CCN(C(=O)/C=C/C(C)=O)CC4)c3c2)cc1NS(=O)(=O)c1ccccc1F [Example 200, (E)-2-fluoro-N-(2-methoxy-5-(4-(1-(4-oxopent-2-enoyl)-1,2,3,6-tetrahydropyridin-4-yl)quinazolin-6-yl)pyridin-3-yl)benzene-sulfonamide] | 8.64 | 8.01 | 6.88 | 7.96 | 8.19 |
| COc1ncc(-c2ccc3ncnc(C4=CCN(C(=O)/C=C/C(C)=O)CC4)c3c2)cc1NS(=O)(=O)c1c(F)cccc1F [Example 201, (E)-2,6-difluoro-N-(2-methoxy-5-(4-(1-(4-oxopent-2-enoyl)-1,2,3,6-tetrahydropyridin-4-yl)quinazolin-6-yl)pyridin-3-yl)benzenesulfonamide] | 8.42 | 7.93 | 6.85 | 8.14 | 8.28 |

From US20250145589A1, “PYRIDINE DERIVATIVE AND USE THEREOF” (SICHUAN HUIYU PHARMACEUTICAL CO., LTD., priority 2021, published 2025)
